Source: patent US4533664A, “Antithrombotic N-(6-chloro-pyrazin-2-yl)-4-Hydroxy-2H-1,2-benzothiazine-3-carboxamide-1 ,1-dioxide derivatives, composition, and method of use” (Dr. Karl Thomae Gesellschaft mit beschrankter Haftung, priority 1982, dated 1985)
Structures can show the parent of a compound that is named as a salt. Where two headings read alike, the source gives them in different places.

How the values were obtained:
[1] = tested on: collagen-induced aggregation (platelet-rich plasma); assay: Born test, rat ex vivo, collagen-induced aggregation; type: in vivo; details: 1 hour after administration, optical density
Experimental: (b) Born test, rat ex vivo, collagen-induced aggregation
The following forms were tested:
The test compound was administered by esophageal tube in the form of an aqueous solution or, in the case of compound A in the form of a tylose suspension, to conscious rats weighing about 450 g. After 1 hour, blood was taken from the abdominal aorta of the animals (which had previously been anesthetized with pentobarbital sodium). The platelet-rich plasma obtained by centrifuging was pooled. The controls were three animals which had not been given any of the test compound. The method of taking blood and preparing the plasma was the same for both groups. The anticoagulant used was 2% sodium citrate in a volume ratio of 1+9.
All the testing was carried out one hour after the administration of the test compound.

[2] = tested on: collagen-induced thrombocyte aggregation; assay: Born test, collagen-induced aggregation (platelet-rich plasma); type: cell-based, human (healthy test subjects); details: for inhibition at 10 µM: 10^-5 Mol/l; for inhibition at 1 µM: 10^-6 Mol/l
Experimental: The compounds were tested for their inhibiting effects in blood platelet aggregation induced by collagen and their effect of prolonging the bleeding time in mice. The compounds were also tested for their acute toxicity.
(a) Born test, collagen-induced aggregation
The thrombocyte aggregation was measured on platelet-rich plasma from healthy test subjects using the method of BORN and CROSS (J. Physiol. 170, 397 [1964]). The decrease in optical density of the platelet suspensions after the addition of collagen was measured photometrically and recorded. The rate of aggregation was deduced from the angle of inclination of the density curve. The point on the curve at which there is maximum light transmittance was used to calculate the "optical density". The quantity of collagen was selected so as to obtain an irreversible control curve.
The figures given refer to the optical density and indicate the percentage change in light transmittance (=% attenuation of aggregation) under the effect of the test substance, compared with the control.
Standard commercial collagen made by Hormon-Chemie of Munich was used.

[3] = Determination of acute toxicity; type: in vivo; details: mouse, in vivo; oral, mice; printed ">>1000 mg/kg"
Experimental: (§1) (d) Determination of acute toxicity
(§2) The acute toxicity was determined after oral administration to male and female mice. The compounds were administered as a suspension in tylose.
(§3) The following table indicates the number of animals which died within 1, 7 and 14 days after receiving the doses stated: […]

mice = assay: Determination of acute toxicity; type: in vivo
Experimental: as §1, §2, §3

rat = assay: edema test (antiphlogistic effect); type: in vivo; details: for powerful antiphlogistic effect, dose range: p.o. in the rat (edema test)
stomach of the rat = assay: ulcerogenic effect on the stomach of the rat; type: in vivo
bleeding time in mice = assay: Determination of the bleeding time in mice (method of DUKE); type: in vivo, mouse (NMRI Biberach)
Experimental: (c) Determination of the bleeding time in mice
The bleeding time was measured on unanesthetized female mice weighing from 20 to 25 g by the method of DUKE (J. Amer. Med. Assoc.) 15, 1187, 1910). About 0.5 mm of the tip of the animals' tail was cut off, and the blood escaping was carefully wiped away with a strip of filter paper at 30 second intervals. The number of drops of blood thus obtained provided a measurement of the bleeding time. The normal bleeding time in mice is 4.1 minutes on average.
Strain of animals: NMRI Biberach
Number of animals per test: 5
The test compound was administered by esophageal tube one hour before the measurement.

[4] = Homo sapiens, optical density, read-out: BORN test [= % reduction in aggregation]
[5] = Homo sapiens, Table I, read-out: IC50 (50% reduction in aggregation)
[6] = 250 mg/kg oral, of 10 animals (A) or 5 animals (B, Y, Z)
[7] = 1000 mg/kg oral, of 10 animals (A) or 5 animals (B)
[8] = Homo sapiens, as stated in text on Table I, read-out: concentration giving a 50% reduction in aggregation

CN1C(C(=O)Nc2cncc(Cl)n2)=C(O)c2ccccc2S1(=O)=O [C, Sodium salt of N-(6-chloro-pyrazin-2-yl)-4-hydroxy-2-methyl-2H-1,2-benzothiazine-3-carboxamide-1,1-dioxide]
percentage inhibition of aggregation ([1]; 0.0125 mg/kg p.o.): 0%
percentage inhibition of aggregation ([1]; 0.025 mg/kg p.o.): 32%
percentage inhibition of aggregation ([1]; 0.05 mg/kg p.o.): 96%
percentage inhibition of aggregation ([1]; 0.125 mg/kg p.o.): 100%
percentage inhibition of aggregation ([1]; 0.25 mg/kg p.o.): 100%
percentage inhibition of aggregation ([1]; 0.5 mg/kg p.o.): 100%

CN1C(C(=O)Nc2cncc(Cl)n2)=C(O)c2ccccc2S1(=O)=O [Compound A, N-(6-Chloro-pyrazin-2-yl)-4-hydroxy-2-methyl-2H-1,2-benzothiazine-3-carboxamide-1,1-dioxide]
inhibition at 10 µM [2, 4]: 95%
inhibition at 1 µM [2, 4]: 71%
inhibition at 0.1 µM ([2]; Homo sapiens, 10^-7 Mol/l, optical density, read-out: BORN test [= % reduction in aggregation]): 6%
IC50 [2, 5]: 0.47 µM
concentration leading to a 50% reduction compared with prior art compounds Y and Z ([2]; comparison with Y and Z): about one tenth power lower
percentage inhibition of aggregation ([1]; 0.125 mg/kg p.o.): 14%
inhibition at 0.25 mg/kg ([1]; Rattus norvegicus, po, 1 h, 0.25 mg/kg p.o., read-out: percentage inhibition of aggregation): 93%
inhibition at 0.5 mg/kg ([1]; Rattus norvegicus, po, 1 h, 0.5 mg/kg p.o., read-out: percentage inhibition of aggregation): 86%
LD50 at 336 h [3]: > 1000 mg/kg
Animals which died during the observation period, 1 day (mice; [6]): 0
Animals which died during the observation period, 7 days (mice; [6]): 0
Animals which died during the observation period, 14 days (mice; [6]): 0
Animals which died during the observation period, 1 day (mice; [7]): 0
Animals which died during the observation period, 7 days (mice; [7]): 0
Animals which died during the observation period, 14 days (mice; [7]): 0
ED35 (rat; Rattus norvegicus, po, edema test): > 200 mg/kg
antiphlogistic effect (rat; edema test): no antiphlogistic effect
ulcerogenic effect (stomach of the rat): no ulcerogenic effect up to 100 mg/kg

CN1C(C(=O)Nc2cncc(Cl)n2)=C(O)c2ccccc2S1(=O)=O [Compound B, Potassium salt of N-(6-chloro-pyrazin-2-yl)-4-hydroxy-2-methyl-2H-1,2-benzothiazine-3-carboxamide-1,1-dioxide]
percentage inhibition of aggregation ([1]; 0.0125 mg/kg p.o.): 26%
percentage inhibition of aggregation ([1]; 0.025 mg/kg p.o.): 86%
percentage inhibition of aggregation ([1]; 0.05 mg/kg p.o.): 100%
Animals which died during the observation period, 1 day (mice; [6]): 0
Animals which died during the observation period, 7 days (mice; [6]): 0
Animals which died during the observation period, 14 days (mice; [6]): 0
Animals which died during the observation period, 1 day (mice; [7]): 0
Animals which died during the observation period, 7 days (mice; [7]): 1
Animals which died during the observation period, 14 days (mice; [7]): 1

CN1C(C(=O)Nc2cncc(Cl)n2)=C(O)c2ccccc2S1(=O)=O [D, Tetramethylammonium salt of N-(6-chloro-pyrazin-2-yl)-4-hydroxy-2-methyl-2H-1,2-benzothiazine-3-carboxamide-1,1-dioxide]
percentage inhibition of aggregation ([1]; 0.0125 mg/kg p.o.): 27%
percentage inhibition of aggregation ([1]; 0.025 mg/kg p.o.): 20%
percentage inhibition of aggregation ([1]; 0.05 mg/kg p.o.): 97%

CN1C(C(=O)Nc2cncc(Cl)n2)=C(O)c2ccccc2S1(=O)=O [E, Ethanolamine salt of N-(6-chloropyrazin-2-yl)-4-hydroxy-2-methyl-2H-1,2-benzothiazine-3-carboxamide-1,1-dioxide]
percentage inhibition of aggregation ([1]; 0.0125 mg/kg p.o.): 10%
percentage inhibition of aggregation ([1]; 0.025 mg/kg p.o.): 53%
percentage inhibition of aggregation ([1]; 0.05 mg/kg p.o.): 87%

CN1C(C(=O)Nc2cncc(Cl)n2)=C(O)c2ccccc2S1(=O)=O [F, Calcium salt of N-(6-chloro-pyrazin-2-yl)-4-hydroxy-2-methyl-2H-1,2-benzothiazine-3-carboxamide-1,1-dioxide]
percentage inhibition of aggregation ([1]; 0.0125 mg/kg p.o.): 27%
percentage inhibition of aggregation ([1]; 0.025 mg/kg p.o.): 64%
percentage inhibition of aggregation ([1]; 0.05 mg/kg p.o.): 77%

CN1C(C(=O)Nc2cncc(Cl)n2)=C(O)c2ccccc2S1(=O)=O [G, Ammonium salt of N-(6-chloro-pyrazin-2-yl)-4-hydroxy-2-methyl-2H-1,2-benzothiazine-3-carboxamide-1,1-dioxide]
percentage inhibition of aggregation ([1]; 0.0125 mg/kg p.o.): 7%
percentage inhibition of aggregation ([1]; 0.025 mg/kg p.o.): 36%
percentage inhibition of aggregation ([1]; 0.05 mg/kg p.o.): 92%

CN1C(C(=O)Nc2ccccn2)=C(O)c2ccccc2S1(=O)=O [Y, 4-hydroxy-2-methyl-N-(2-pyridyl)-2H-1,2-benzothiazine-3-carboxamide-1,1-dioxide]
inhibition at 10 µM [2, 4]: 85%
inhibition at 1 µM [2, 4]: 39%
IC50 [2, 5]: 2 µM
IC50 [2, 8]: 2 µM
side effects (bleeding time in mice; 10 mg/kg): already show side effects
Animals which died during the observation period, 1 day (mice; [6]): 0
Animals which died during the observation period, 7 days (mice; [6]): 3
Animals which died during the observation period, 14 days (mice; [6]): 3
powerful antiphlogistic effect, dose range (rat): 1 to 5 mg/kg
ulcerogenic effect (stomach of the rat): strong ulcerogenic effect

CN1C(C(=O)Nc2cnccn2)=C(O)c2ccccc2S1(=O)=O [Z, 4-hydroxy-2-methyl-N-(2-pyrazinyl)-2H-1,2-benzothiazine-3-carboxamide-1,1-dioxide]
inhibition at 10 µM [2, 4]: 15%
IC50 [2, 5]: > 10 µM
IC50 [2, 8]: > 10 µM
Prolongation of bleeding time (bleeding time in mice; 10 mg/kg by esophageal tube, one hour before the measurement): +62%
Animals which died during the observation period, 1 day (mice; [6]): 1
Animals which died during the observation period, 7 days (mice; [6]): 4
Animals which died during the observation period, 14 days (mice; [6]): 4
powerful antiphlogistic effect, dose range (rat): 1 to 5 mg/kg
ulcerogenic effect (stomach of the rat): strong ulcerogenic effect
